Data taken from the Deep4Chem optical property database.
Values belong to the compound of their own block, whether it stands above or below them.

Assay: solvent given as SMILES

Compound: COc1ccc(/C=C/c2nc(/C=C/c3ccc(N(c4ccccc4)c4ccccc4)cc3)cc(/C=C/c3ccc(N(c4ccccc4)c4ccccc4)cc3)n2)cc1
- emission maximum (in C1CCOC1): 515 nm
- emission maximum (in CC#N): 583 nm
- emission maximum (in CC(C)=O): 555 nm
- emission maximum (in CCCCCCC): 461 nm
- emission maximum (in CS(C)=O): 584 nm
- emission maximum (in Cc1ccccc1): 480 nm
- emission maximum (in ClCCl): 543 nm

- emission maximum (in ClCCl): 564 nm
Compound: Cc1ccccc1N1c2sc3ccccc3c2Sc2sc3ccccc3c21

- emission maximum (in CN(C)C=O): 716 nm
Compound: CCN(CC)c1ccc(/C=C2\CC/C(=C\c3ccc(N(c4ccccc4)c4ccccc4)cc3)C2=C(C#N)C#N)cc1

Compound: CC(C)(C)c1ccc2c(c1)c1cc(C(C)(C)C)ccc1n2-c1cc(C(=O)c2ccccc2)cc(-n2c3ccc(C(C)(C)C)cc3c3cc(C(C)(C)C)ccc32)c1
- emission maximum (in Cc1ccccc1): 466.36 nm
- emission maximum (in c1cc(-c2cccc(-n3c4ccccc4c4ccccc43)c2)cc(-n2c3ccccc3c3ccccc32)c1): 470.81 nm

- emission maximum (in ClC(Cl)Cl): 595 nm
Compound: O=Cc1ccc(C#CC(C#Cc2ccc(C=O)s2)=Cc2ccc(C=C(C#Cc3ccc(C=O)s3)C#Cc3ccc(C=O)s3)s2)s1

Compound: CCCCCCc1ccc(-n2c3[n+](c4c5ccccc5c5ccccc5c42)[B-](C)(C)c2cc(N(c4ccccc4)c4ccccc4)ccc2-3)cc1
- emission maximum (in C1CCOC1): 435 nm
- emission maximum (in CC#N): 446 nm
- emission maximum (in Cc1ccccc1): 428 nm
- emission maximum (in ClCCl): 437 nm

- emission maximum (in C1CCOC1): 596 nm
- emission maximum (in CC#N): 620 nm
- emission maximum (in CCO): 584 nm
- emission maximum (in CO): 564 nm
- emission maximum (in ClCCl): 588 nm
Compound: O=C1C2=C(O[B-](F)(F)[n+]3c2ccc2ccccc23)c2cccc3c(N4CCOCC4)ccc1c23

Compound: O=[N+]([O-])c1ccc(-n2c3ccccc3c3c2c2ccccc2n3-c2ccccc2)cc1
- emission maximum (in Cc1ccccc1): 660 nm

- emission maximum (in ClCCl): 722 nm
Compound: COc1ccc(C2=C3C(/C=C/c4cc(OC)c(OC)c(OC)c4)=C(C=O)C(/C=C/c4cc(OC)c(OC)c(OC)c4)=[N+]3[B-](F)(F)n3c(/C=C/c4cc(OC)c(OC)c(OC)c4)c(C=O)c(C=Cc4cc(OC)c(OC)c(OC)c4)c32)cc1

- emission maximum (in CC#N): 513 nm
- emission maximum (in CC(C)O): 511.01 nm
- emission maximum (in CCO): 510 nm
- emission maximum (in CO): 509.01 nm
- emission maximum (in NC=O): 519 nm
- emission maximum (in O): 511.01 nm
- emission maximum (in OC(C(F)(F)F)C(F)(F)F): 506 nm
- emission maximum (in OCC(F)(F)F): 508 nm
- emission maximum (in OCCO): 512.01 nm
Compound: O=S(=O)([O-])c1cc([O-])c2ccc3c(S(=O)(=O)[O-])cc(S(=O)(=O)[O-])c4ccc1c2c34

- emission maximum (in O): 500 nm
Compound: COc1cc(N(CC(=O)[O-])CC(=O)[O-])c2nc(COc3cc(C)ccc3N(CC(=O)[O-])CC(=O)[O-])ccc2c1

Compound: c1ccc(-c2nc(-c3ccccc3)nc(-c3ccc(-n4c5ccccc5c5cc6c(cc54)C4(c5ccccc5-c5ccccc54)c4ccccc4-6)cc3)n2)cc1
- emission maximum (in C1CCOC1): 492.65 nm
- emission maximum (in CCCCCC): 396.27 nm
- emission maximum (in Cc1ccccc1): 432 nm
- emission maximum (in ClCCl): 501.47 nm
- emission maximum (in O=P(c1ccccc1)(c1ccccc1)c1ccccc1Oc1ccccc1P(=O)(c1ccccc1)c1ccccc1): 470 nm

- emission maximum (in ClCCl): 581 nm
Compound: COc1cccc(C2=C3C=C(/C=C/C(=O)OC(C)(C)C)C=[N+]3[B-](F)(F)n3cccc32)c1

Compound: c1ccc2c(c1)c1ccccc1n2-c1ccc(-c2ccc(-n3c4ccccc4c4ccccc43)nc2-n2c3ccccc3c3ccccc32)nn1
- emission maximum (in CC#N): 464.96 nm
- emission maximum (in Cc1ccccc1): 423 nm
- emission maximum (in ClCCl): 432.68 nm

- emission maximum (in CCO): 420 nm
- emission maximum (in ClCCl): 420 nm
Compound: COCc1ncc(-c2c3ccccc3c(-c3cnc(COC)nc3)c3ccccc23)cn1

- emission maximum (in ClC(Cl)Cl): 485 nm
Compound: CC(C)c1cccc(C(C)C)c1-n1c(=O)c2ccc3c4ccc5c(=O)n(-c6c(C(C)C)cccc6C(C)C)c(=O)c6cc7c(-c8ccccn8)nc8cc(c1=O)c2c3c8c7c4c56

Compound: Cc1ccc(C2=C3C=CC(Cl)=[N+]3[B-](F)(F)n3c(Cl)ccc32)cc1
- emission maximum (in C1CCCCC1): 525 nm
- emission maximum (in C1CCOC1): 523 nm
- emission maximum (in CC#N): 520 nm
- emission maximum (in CCOC(C)=O): 521 nm
- emission maximum (in CO): 519 nm
- emission maximum (in Cc1ccccc1): 529 nm
- emission maximum (in ClC(Cl)Cl): 526 nm

Compound: O=C1c2ccc3c4ccc5c6c(ccc(c7ccc(c2c37)C(=O)N1c1ccncc1)c64)C(=O)N(c1ccncc1)C5=O
- emission maximum (in C1CCOC1): 570 nm
- emission maximum (in C1COCCO1): 572 nm
- emission maximum (in CC(C)=O): 570 nm
- emission maximum (in CC(C)O): 572 nm
- emission maximum (in CCCCO): 570 nm
- emission maximum (in CCO): 569 nm
- emission maximum (in CCOC(C)=O): 567 nm
- emission maximum (in CN(C)C=O): 574 nm
- emission maximum (in CO): 569 nm
- emission maximum (in CS(C)=O): 580 nm
- emission maximum (in ClC(Cl)(Cl)Cl): 573 nm
- emission maximum (in ClC(Cl)Cl): 576 nm

- emission maximum (in O): 550 nm
Compound: O=c1c2cc3[nH]c4c(S(=O)(=O)O)cc(S(=O)(=O)O)cc4c(=O)c3cc2[nH]c2c(S(=O)(=O)O)cc(S(=O)(=O)O)cc12

- emission maximum (in ClCCl): 571 nm
Compound: COc1ccc(/C=C/C2=[O+][B-](F)(F)OC(/C=C/c3ccc(OC)cc3)=C2c2ccc(OC)cc2)cc1

- emission maximum (in CC#N): 769 nm
Compound: CC(=O)OC[C@H]1O[C@@H](OCC#Cc2ccc(C3=C4C(C)=CC(/C=C/c5ccc(N(C)C)cc5)=[N+]4[B-](F)(F)n4c(/C=C/c5ccc(N(C)C)cc5)cc(C)c43)cc2)[C@H](OC(C)=O)C(OC(C)=O)[C@@H]1OC(C)=O (some centres undefined)

- emission maximum (in CC#N): 549 nm
Compound: CC1=C(c2ccccc2)C2=Cc3c(-c4ccccc4)c(C)c(C)n3[B-](F)(F)[N+]2=C1C

- emission maximum (in CS(C)=O): 692 nm
Compound: COc1ccc(C2=[N+]3C(=Nc4c(C)cc(-c5ccc(OC)cc5)n4[B-]3(F)F)C(C)=C2)cc1

- emission maximum (in CO): 813 nm
Compound: CS1(C)C(/C=C/C2=C(c3ccc(C(=O)O)cc3)C(=C/C=C3/N(CCCCS(=O)(=O)[O-])c4ccccc4S3(C)C)/CCC2)=[N+](CCCCS(=O)(=O)[O-])c2ccccc21

- emission maximum (in CCO): 454 nm
Compound: O=c1c2cc(F)c(O)cc2n(-c2ccccc2)c2cc(O)c(F)cc12

- emission maximum (in CO): 778 nm
- emission maximum (in O): 770 nm
Compound: CC1(C)C2=[N+](CCCCCC(=O)NCCNC(=O)CCCCCN3/C(=C/C=C/C=C/C=C/2)C(C)(C)c2cc(S(=O)(=O)[O-])ccc23)c2ccc(S(=O)(=O)[O-])cc21

Compound: COC(=O)C1=C(C(=O)OC)C2=C[C@H]3c4ccccc4[C@]2(S1)c1ccccc13
- emission maximum (in C1CCOC1): 477 nm
- emission maximum (in CC#N): 489 nm
- emission maximum (in CCCCCC): 465 nm
- emission maximum (in CCOCC): 473 nm
- emission maximum (in CO): 500 nm
- emission maximum (in ClCCl): 488 nm
- emission maximum (in c1ccccc1): 477 nm

Compound: CCNc1ccc2c(C(F)(F)F)cc(=O)oc2c1
- emission maximum (in C1CCC2CCCCC2C1): 420 nm
- emission maximum (in C1CCCCC1): 417 nm
- emission maximum (in CC1CCCCC1): 417 nm
- emission maximum (in CC#N): 485 nm
- emission maximum (in CC(C)=O): 485 nm
- emission maximum (in CC(C)O): 490 nm
- emission maximum (in CCC(C)CC): 415 nm
- emission maximum (in CCCC(C)C): 415 nm
- emission maximum (in CCCCCC): 417 nm
- emission maximum (in CCCCCCO): 490 nm
- emission maximum (in CCCCO): 493 nm
- emission maximum (in CCO): 500 nm
- emission maximum (in CCOC(C)=O): 478 nm
- emission maximum (in CO): 500 nm

- emission maximum (in CO): 435 nm
Compound: N#Cc1ccc(-c2nc(-c3ccccc3)c(-c3ccccc3)[nH]2)cc1

- emission maximum (in C1CCOC1): 366 nm
Compound: COC(=O)c1ccc(-c2ccc3c(c2)C(=O)c2cc(-c4ccc(C(=O)OC)cc4)ccc2-3)cc1

- emission maximum (in CCO): 526 nm
Compound: CCOC(=O)c1cc(C(=O)OCC)c2cccc(OC)c2n1

- emission maximum (in ClCCl): 517 nm
Compound: CCCCCCN1C(=O)c2cccc3c(-c4ccc(-c5cc(-c6ccccc6)nn5-c5ccccc5)s4)ccc(c23)C1=O

Compound: CCCC1=Cc2nc1ccc1[nH]c(cc1CCC)c1nc(ccc3[nH]c2cc3CCC)C(CCC)=C1
- emission maximum (in Cc1ccccc1): 641 nm
